Assay results from patent publication US20240270762A1, “PENICILLIN-BINDING PROTEIN INHIBITORS” (priority 2021, published 2024).
In brackets after ≈: the same amount, converted by molar mass. Where two headings read alike, the source gives them in different places.

Tests used:
P. aeruginosa CDC-0054 = experiment: microbe, parasite or virus in culture; format: cell-based; details: Pseudomonas aeruginosa, CDC0054, read-out: Minimum inhibitory concentration, P. aeruginosa CDC-0054
[1] = target: T1, PBP3 from Pseudomonas aeruginosa (PAO1) (Pseudomonas aeruginosa, UniProt G3XD46); experiment: Bocillin-FL fluorescence polarization competition binding, P. aeruginosa PBP3; details: Binding affinity to P. aeruginosa PBP3; fluorescence polarization competition binding assay using Bocillin-FL; read-out: P. aeruginosa PBP3 Potency
T1 construct: made in house
T1 sequence (G3XD46 whole entry): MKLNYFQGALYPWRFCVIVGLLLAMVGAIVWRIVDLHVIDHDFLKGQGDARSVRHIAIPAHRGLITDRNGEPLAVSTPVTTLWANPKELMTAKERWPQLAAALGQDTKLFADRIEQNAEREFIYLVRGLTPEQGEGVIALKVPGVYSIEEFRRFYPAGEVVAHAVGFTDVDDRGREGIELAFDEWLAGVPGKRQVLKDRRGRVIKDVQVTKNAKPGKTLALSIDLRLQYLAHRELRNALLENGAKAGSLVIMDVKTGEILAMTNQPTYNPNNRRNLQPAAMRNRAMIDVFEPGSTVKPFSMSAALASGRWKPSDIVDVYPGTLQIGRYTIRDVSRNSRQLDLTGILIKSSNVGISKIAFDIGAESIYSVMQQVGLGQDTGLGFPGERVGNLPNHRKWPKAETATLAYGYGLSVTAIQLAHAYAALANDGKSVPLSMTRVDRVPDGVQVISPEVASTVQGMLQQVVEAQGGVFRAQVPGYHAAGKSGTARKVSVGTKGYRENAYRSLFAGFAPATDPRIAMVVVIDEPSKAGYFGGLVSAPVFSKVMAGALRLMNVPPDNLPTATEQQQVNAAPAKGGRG
Outline: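 Purified PBPs pre-incubated with inhibitor (E. coli PBP3 1.5 μM, 30 min; P. aeruginosa PBP3 0.75 μM, A. baumannii PBP1a 1 μM and PBP3 0.2 μM, 15 min), then Bocillin-FL 0.1 μM (0.05 μM for PBP1a) added; FP read up to 60 min. EC50 = concentration halving bound Bocillin-FL.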

A. baumannii 1258916 = experiment: microbe, parasite or virus in culture; format: cell-based, Acinetobacter baumannii
A. baumannii ATCC 17978 = experiment: microbe, parasite or virus in culture; format: cell-based; details: Acinetobacter baumannii
P. aeruginosa ATCC 35151 = experiment: microbe, parasite or virus in culture; format: cell-based; details: Pseudomonas aeruginosa, ATCC35151, read-out: Minimum inhibitory concentration, P. aeruginosa ATCC 35151
P. aeruginosa CDC-0090 = experiment: microbe, parasite or virus in culture; format: cell-based; details: Pseudomonas aeruginosa, CDC0090, read-out: Minimum inhibitory concentration, P. aeruginosa CDC-0090
A. baumannii CDC-0036 = experiment: microbe, parasite or virus in culture; format: cell-based; details: Acinetobacter baumannii
[2] = test system: P. aeruginosa (ΔmexAB-oprM); experiment: Broth microdilution MIC in iron-depleted CAMHB (IDM); format: cell-based; details: Pseudomonas aeruginosa; iron-depleted CAMHB (IDM); […]; read-out: Minimum inhibitory concentration, P. aeruginosa ΔmexAB-oprM
A. baumannii CDC-0033 = experiment: microbe, parasite or virus in culture; format: cell-based; details: Acinetobacter baumannii
[3] = test system: B. humptydooensis ATCC BAA-2767; experiment: microbe, parasite or virus in culture; format: cell-based; details: Burkholderia humptydooensis, ATCCBAA2767, read-out: Minimum inhibitory concentration (MIC), B. humptydooensis ATCC BAA-2767
[4] = Acinetobacter baumannii, 1258916, read-out: MIC, A. baumannii 1258916
[5] = ATCC17978, read-out: MIC, A. baumannii ATCC 17978
[6] = CDC0036, read-out: MIC, A. baumannii CDC-0036
[7] = CDC0033, read-out: MIC, A. baumannii CDC-0033
[8] = Acinetobacter baumannii, 1258916, read-out: Minimum inhibitory concentration (MIC), A. baumannii 1258916
[9] = ATCC17978, read-out: Minimum inhibitory concentration (MIC), A. baumannii ATCC 17978
[10] = CDC0036, read-out: Minimum inhibitory concentration (MIC), A. baumannii CDC-0036
[11] = CDC0033, read-out: Minimum inhibitory concentration (MIC), A. baumannii CDC-0033

Compound | MIC (P. aeruginosa CDC-0054) [µg/mL] | IC50 [1] [µM] | MIC (A. baumannii 1258916; [4]) [µg/mL] | MIC (A. baumannii ATCC 17978; [5]) [µg/mL] | MIC (P. aeruginosa ATCC 35151) [µg/mL] | MIC (P. aeruginosa CDC-0090) [µg/mL] | MIC (A. baumannii CDC-0036; [6]) [µg/mL] | MIC [2] [µg/mL] | MIC (A. baumannii CDC-0033; [7]) [µg/mL] | MIC [3] [µg/mL] | MIC (A. baumannii 1258916; [8]) [µg/mL] | MIC (A. baumannii ATCC 17978; [9]) [µg/mL] | MIC (A. baumannii CDC-0036; [10]) [µg/mL] | MIC (A. baumannii CDC-0033; [11]) [µg/mL]
O=C(O)c1c(F)ccc2c1OB(O)[C@@H](NC(=O)C(NC(=O)N1CCN(C3CCN(C(=O)Nc4cc(O)cc(Cl)c4)CC3)C(=O)C1=O)c1cc(F)c(O)c(O)c1Cl)C2 (stereo partly drawn) [Example 484, (3R)-3-(2-(2-chloro-5-fluoro-3,4-dihydroxyphenyl)-2-(4-(1-((3-chloro-5-hydroxyphenyl)carbamoyl)piperidin-4-yl)-2,3-dioxopiperazine-1-carboxamido)acetamido)-7-fluoro-2-hydroxy-3,4-dihydro-2H-benzo[e][1,2]oxaborinine-8-carboxylic acid] | 2 to 4 (≈ 2.39 to 4.79 µM) | < 10 | < 1 | < 1 | < 1 | 2 to 4 (≈ 2.39 to 4.79 µM) | 2 to 4 (≈ 2.39 to 4.79 µM) | < 1 | 2 to 4 (≈ 2.39 to 4.79 µM) | > 128 |  |  |  | 
O=C(O)c1c(F)ccc2c1OB(O)[C@@H](NC(=O)C(NC(=O)N1CCN(C3CCN(S(=O)(=O)Cc4cccc(O)c4)CC3)C(=O)C1=O)c1cc(F)c(O)c(O)c1Cl)C2 (stereo partly drawn) [Example 485, (3R)-3-(2-(2-chloro-5-fluoro-3,4-dihydroxyphenyl)-2-(4-(1-((3-hydroxybenzyl)sulfonyl)piperidin-4-yl)-2,3-dioxopiperazine-1-carboxamido)acetamido)-7-fluoro-2-hydroxy-3,4-dihydro-2H-benzo[e][1,2]oxaborinine-8-carboxylic acid] | < 1 | < 10 | < 1 | < 1 | < 1 | < 1 | < 1 | < 1 | < 1 | 2 to 4 (≈ 2.39 to 4.78 µM) |  |  |  | 
O=C(O)c1c(F)ccc2c1OB(O)[C@@H](NC(=O)C(NC(=O)N1CCN(C3CCN(C(=O)Nc4ccc(F)c(O)c4F)CC3)C(=O)C1=O)c1cc(F)c(O)c(O)c1Cl)C2 (stereo partly drawn) [Example 486, (3R)-3-(2-(2-chloro-5-fluoro-3,4-dihydroxyphenyl)-2-(4-(1-((2,4-difluoro-3-hydroxyphenyl)carbamoyl)piperidin-4-yl)-2,3-dioxopiperazine-1-carboxamido)acetamido)-7-fluoro-2-hydroxy-3,4-dihydro-2H-benzo[e][1,2]oxaborinine-8-carboxylic acid] | < 1 | < 10 |  |  | < 1 | 2 to 4 (≈ 2.39 to 4.78 µM) |  | < 1 |  | 2 to 4 (≈ 2.39 to 4.78 µM) | < 1 | < 1 | < 1 | 2 to 4 (≈ 2.39 to 4.78 µM)
O=C(O)c1c(F)ccc2c1OB(O)[C@@H](NC(=O)C(NC(=O)N1CCN(C3CCN(C(=O)Nc4c(F)ccc(O)c4F)CC3)C(=O)C1=O)c1cc(F)c(O)c(O)c1Cl)C2 (stereo partly drawn) [Example 487, (3R)-3-(2-(2-chloro-5-fluoro-3,4-dihydroxyphenyl)-2-(4-(1-((2,6-difluoro-3-hydroxyphenyl)carbamoyl)piperidin-4-yl)-2,3-dioxopiperazine-1-carboxamido)acetamido)-7-fluoro-2-hydroxy-3,4-dihydro-2H-benzo[e][1,2]oxaborinine-8-carboxylic acid] | < 1 | < 10 |  |  | < 1 | 2 to 4 (≈ 2.39 to 4.78 µM) |  | < 1 |  | 2 to 4 (≈ 2.39 to 4.78 µM) | < 1 | < 1 | < 1 | 2 to 4 (≈ 2.39 to 4.78 µM)
O=C(O)c1c(F)ccc2c1OB(O)[C@@H](NC(=O)C(NC(=O)N1CCN(C3CCN(C(=O)Nc4cc(O)c(F)c(F)c4)CC3)C(=O)C1=O)c1cc(F)c(O)c(O)c1Cl)C2 (stereo partly drawn) [Example 488, (3R)-3-(2-(2-chloro-5-fluoro-3,4-dihydroxyphenyl)-2-(4-(1-((3,4-difluoro-5-hydroxyphenyl)carbamoyl)piperidin-4-yl)-2,3-dioxopiperazine-1-carboxamido)acetamido)-7-fluoro-2-hydroxy-3,4-dihydro-2H-benzo[e][1,2]oxaborinine-8-carboxylic acid] | < 1 | < 10 |  |  | < 1 | < 1 |  | < 1 |  | > 128 | < 1 | < 1 | 2 to 4 (≈ 2.39 to 4.78 µM) | 2 to 4 (≈ 2.39 to 4.78 µM)
O=C(O)c1c(F)ccc2c1OB(O)[C@@H](NC(=O)C(NC(=O)N1CCN(C3CCN(C(=O)Nc4ccc(Cl)c(O)c4F)CC3)C(=O)C1=O)c1cc(F)c(O)c(O)c1Cl)C2 (stereo partly drawn) [Example 489, (3R)-3-(2-(4-(1-((4-chloro-2-fluoro-3-hydroxyphenyl)carbamoyl)piperidin-4-yl)-2,3-dioxopiperazine-1-carboxamido)-2-(2-chloro-5-fluoro-3,4-dihydroxyphenyl)acetamido)-7-fluoro-2-hydroxy-3,4-dihydro-2H-benzo[e][1,2]oxaborinine-8-carboxylic acid] | < 1 | < 10 |  |  | < 1 | 2 to 4 (≈ 2.34 to 4.69 µM) |  | < 1 |  | 32 to 64 (≈ 37.5 to 75 µM) | < 1 | < 1 | 2 to 4 (≈ 2.34 to 4.69 µM) | 2 to 4 (≈ 2.34 to 4.69 µM)
O=C(O)c1c(F)ccc2c1OB(O)[C@@H](NC(=O)C(NC(=O)N1CCN(C3CCN(C(=O)Nc4cc(O)c(F)cc4Cl)CC3)C(=O)C1=O)c1cc(F)c(O)c(O)c1Cl)C2 (stereo partly drawn) [Example 490, (3R)-3-(2-(4-(1-((2-chloro-4-fluoro-5-hydroxyphenyl)carbamoyl)piperidin-4-yl)-2,3-dioxopiperazine-1-carboxamido)-2-(2-chloro-5-fluoro-3,4-dihydroxyphenyl)acetamido)-7-fluoro-2-hydroxy-3,4-dihydro-2H-benzo[e][1,2]oxaborinine-8-carboxylic acid] | 8 to 16 (≈ 9.37 to 18.7 µM) | < 10 |  |  | < 1 | 2 to 4 (≈ 2.34 to 4.69 µM) |  | < 1 |  | > 128 | 2 to 4 (≈ 2.34 to 4.69 µM) | < 1 | 2 to 4 (≈ 2.34 to 4.69 µM) | 2 to 4 (≈ 2.34 to 4.69 µM)
O=C(O)c1c(F)ccc2c1OB(O)[C@@H](NC(=O)[C@H](NC(=O)N1CCN(C3CCN(C(=O)Nc4cc(F)c(F)c(O)c4F)CC3)C(=O)C1=O)c1cc(F)c(O)c(O)c1Cl)C2 [Example 491, (R)-3-((R)-2-(2-chloro-5-fluoro-3,4-dihydroxyphenyl)-2-(2,3-dioxo-4-(1-((2,4,5-trifluoro-3-hydroxyphenyl)carbamoyl)piperidin-4-yl)piperazine-1-carboxamido)acetamido)-7-fluoro-2-hydroxy-3,4-dihydro-2H-benzo[e][1,2]oxaborinine-8-carboxylic acid] | < 1 | < 10 |  |  | < 1 | 2 to 4 (≈ 2.34 to 4.68 µM) |  | < 1 |  | 8 to 16 (≈ 9.36 to 18.7 µM) | < 1 | < 1 | 2 to 4 (≈ 2.34 to 4.68 µM) | 2 to 4 (≈ 2.34 to 4.68 µM)
O=C(O)c1c(F)ccc2c1OB(O)[C@@H](NC(=O)[C@H](NC(=O)N1CCN(C3CCN(Cc4cccnc4)CC3)C1=O)c1cc(F)c(O)c(O)c1Cl)C2 [Example 492, (R)-3-((R)-2-(2-chloro-5-fluoro-3,4-dihydroxyphenyl)-2-(2-oxo-3-(1-(pyridin-3-ylmethyl)piperidin-4-yl)imidazolidine-1-carboxamido)acetamido)-7-fluoro-2-hydroxy-3,4-dihydro-2H-benzo[e][1,2]oxaborinine-8-carboxylic acid] | < 1 | < 10 |  |  | < 1 | < 1 |  | < 1 |  | < 1 | < 1 | < 1 | 2 to 4 (≈ 2.74 to 5.49 µM) | < 1
